This data set can be described thus: log P by HPLC on a reversed-phase column (C 18), EEC Directive 79/831 Annex V.A8. As to conditions: 0.1% aqueous formic acid and acetonitrile; for chromatographic logP: reversed-phase HPLC column (C 18), HPLC C 18, 40° C.; for logP: 40° C., linear gradient 10% to 90% acetonitrile. Type of data set: physicochemical. How it is done:
In table 1, the log P values were determined in accordance with EEC Directive 79/831 Annex V.A8 by HPLC (High Performance Liquid Chromatography) on a reversed-phase column (C 18), using the method described below:
Temperature: 40° C.; Mobile phases: 0.1% aqueous formic acid and acetonitrile; linear gradient from 10% acetonitrile to 90% acetonitrile.
Calibration was carried out using unbranched alkan-2-ones (comprising 3 to 16 carbon atoms) with known log P values (determination of the log P values by the retention times using linear interpolation between two successive alkanones). lambda-max-values were determined using UV-spectra from 200 nm to 400 nm and the peak values of the chromatographic signals.

The mark [1] stands for this setting: HPLC, reversed-phase column (C 18).
The mark [2] stands for this setting: Table 4 (aldehydes of formula IV).
Where [3] appears, read: HPLC on reversed-phase column (C 18).

`CC1(c2cc(Cl)c(Cl)cc2CNC2CC2)CC1` [II.07, N-[4,5-dichloro-2-(1-methylcyclopropyl)benzyl]cyclopropanamine]: under “Table 3 (amines of formula II)”, the chromatographic logP worked out at 1.79.
In the case of `Cc1ccc(F)cc1-c1ccc(CN(C(=O)c2c(C(F)F)nn(C)c2F)C2CC2)c(C2(C)CC2)c1` [I.042], under setting [1], the log partition coefficient (logP) is 5.31.
Where the note is “Table 3 (amines of formula II)”, `CC1(c2c(F)cccc2CNC2CC2)CC1` [II.02, N-[3-fluoro-2-(1-methylcyclopropyl)benzyl]cyclopropanamine] gave a chromatographic logP of 1.36.
As to `Cc1ccc(C2(C)CC2)c(C=O)c1` [IV.12, 5-methyl-2-(1-methylcyclopropyl)benzaldehyde], the chromatographic logP under setting [2] stood at 3.55.
As for `Cn1nc(C(F)F)c(C(=S)N(Cc2cc(F)ccc2C2(C)CC2)C2CC2)c1Cl` [I.069], under setting [1], the logP is 4.64.
The same measure, in the same setting: then `C=C(C)c1ccc(C2(OC)CC2)c(CN(C(=O)c2c(C(F)F)nn(C)c2F)C2CC2)c1` [I.127], with 4.12; and `COc1ccc(CN(C(=O)c2c(C(F)F)nn(C)c2F)C2CC2)c(C2(C)CC2)c1` [I.028], with 3.69.
For the molecule `Cn1nc(C(F)F)c(C(=O)N(Cc2cc(Cl)ccc2C2(C(F)(F)F)CC2)C2CC2)c1F` [I.163], the logP under setting [3] is given as 4.13.
In turn, `CCC1(c2cccc(F)c2CN(C(=O)c2c(C(F)F)nn(C)c2F)C2CC2)CC1` [I.114] had a logP under setting [1] of 4.19.
Turning to `Cn1nc(C(F)F)c(C(=O)N(Cc2c(C3(C)CC3(Cl)Cl)ccc(Cl)c2F)C2CC2)c1Cl` (racemic) [I.175], the logP under setting [3] worked out at 4.61.
Where the note is “Table 3 (amines of formula II)”, `Cc1ccc(C2(CC(C)C)CC2)c(CNC2CC2)c1` [II.43, N-[2-(1-isobutylcyclopropyl)-5-methylbenzyl]cyclopropanamine] yielded a chromatographic logP of 2.15.
In turn, `CCC1(c2cc(Cl)ccc2CN(C(=O)c2c(C(F)F)nn(C)c2Cl)C2CC2)CC1` [I.103] came in with a logP under setting [1] of 4.82.
Still for that read-out and setting: then `COC1(c2ccc(C3=CCCC3)cc2CN(C(=O)c2c(C(F)F)nn(C)c2F)C2CC2)CC1` [I.126], with 4.76; and `Cn1nc(C(F)F)c(C(=O)N(Cc2cc(Cl)ccc2C2(C(F)F)CC2)C2CC2)c1Cl` [I.148], with 3.85; and `Cc1ccc(C2(C(F)F)CC2)c(CN(C(=O)c2c(C(F)F)nn(C)c2F)C2CC2)c1` [I.153], with 3.64.
As to `Cn1nc(C(F)F)c(C(=O)N(Cc2ccccc2C2(C(F)(F)F)CC2)C2CC2)c1Cl` [I.162], under setting [3], the logP came to 3.87.
Under setting [1], `Cc1ccc(C2(C)CC2)c(CN(C(=O)c2c(C(F)F)nn(C)c2F)C2CC2)c1F` [I.087] returned a lipophilicity (logP) of 4.21.
For the molecule `O=Cc1cc(Cl)ccc1C1(C(=O)O)CC1` [IV.24, 1-(4-chloro-2-formylphenyl)cyclopropanecarboxylic acid], the chromatographic logP under setting [2] came out at 1.91.
The molecule `CC1(c2ccc(F)cc2CNC2CC2)CC1` [II.11, N-[5-fluoro-2-(1-methylcyclopropyl)benzyl]cyclopropanamine] displayed a chromatographic logP (Table 3 (amines of formula II)) of 1.37.
`Cc1ccc(C2(C(F)F)CC2)c(CN(C(=O)c2c(C(F)F)nn(C)c2Cl)C2CC2)c1` [I.154] came in with a logP under setting [1] of 3.76.
Still for that read-out and setting: the same measure for `C#CC1(c2ccc(C)cc2CN(C(=O)c2c(C(F)F)nn(C)c2Cl)C2CC2)CC1` [I.093]: 3.78; for `CC(C)c1ccc(C2(C)CC2)c(CN(C(=O)c2c(C(F)F)nn(C)c2F)C2CC2)c1` [I.070]: 4.61; for `COC1(c2ccc(C(C)C)cc2CN(C(=O)c2c(C(F)F)nn(C)c2F)C2CC2)CC1` [I.121]: 4.29.
The same measure, in the same setting: then `Cc1ccc(CN(C(=O)c2c(C(F)F)nn(C)c2F)C2CC2)c(C2(C)CC2)c1` [I.026], with 4.21.
In turn, `CC1(c2ccc(Br)cc2CNC2CC2)CC1` [II.09, N-[5-bromo-2-(1-methylcyclopropyl)benzyl]cyclopropanamine] gave a chromatographic logP (Table 3 (amines of formula II)) of 1.43.
Under setting [1], `Cc1ccc(CN(C(=O)c2c(C(F)F)nn(C)c2Cl)C2CC2)c(C2(C)CC2)c1` [I.027] gave a logP of 4.36.
On the same count and under the same terms, then `Cn1nc(C(F)F)c(C(=O)N(Cc2ccc(Cl)cc2C2(C)CC2)C2CC2)c1Cl` [I.019], with 4.54.
`Cc1ccc(C2(C)CC2)c(CNC2(C#N)CC2)c1` [II.14, 1-{[5-methyl-2-(1-methylcyclopropyl)benzyl]amino}cyclopropanecarbonitrile] displayed a chromatographic logP (Table 3 (amines of formula II)) of 4.07.
`COC1(c2ccc(C3=CCOCC3)cc2CN(C(=O)c2c(C(F)F)nn(C)c2F)C2CC2)CC1` [I.124] showed a logP under setting [1] of 3.55.
The same measure, in the same setting: the same measure for `Cn1nc(C(F)F)c(C(=O)N(Cc2cccc(F)c2C2(C)CC2)C2CC2)c1Cl` [I.009]: 3.99; for `CCC1(c2ccc(Cl)cc2CN(C(=O)c2c(C(F)F)nn(C)c2Cl)C2CC2)CC1` [I.111]: 4.77.
Under setting [1], `Cn1nc(C(F)F)c(C(=O)N(Cc2cc(Cl)ccc2C2(C#N)CC2)C2CC2)c1Cl` [I.095] had a logP of 3.31.
In turn, `CC(C)CC1(c2cc(Cl)ccc2CN(C(=O)c2c(C(F)F)nn(C)c2F)C2CC2)CC1` [I.157] had a logP under setting [1] of 5.42.
The molecule `CC1(c2ccc(Cl)cc2C=O)CC1` [IV.10, 5-chloro-2-(1-methylcyclopropyl)benzaldehyde] displayed a chromatographic logP under setting [2] of 3.76.
Turning to `Cc1ccc(C2(C)CC2)c(CNC2CC2)c1` [II.12, N-[5-methyl-2-(1-methylcyclopropyl)benzyl]cyclopropanamine], for the setting “Table 3 (amines of formula II)”, the chromatographic logP is 1.38.
Consider `COC1(c2ccc(Cl)cc2CN(C(=O)c2c(C(F)F)nn(C)c2F)C2CC2)CC1` [I.118], for which the logP under setting [1] is 3.67.
Molecule `CC1(c2c(CNC3CC3)ccc3c2OCO3)CC1` [II.03, N-{[4-(1-methylcyclopropyl)-1,3-benzodioxol-5-yl]methyl}cyclopropanamine] came in with a chromatographic logP (Table 3 (amines of formula II)) of 1.43.
On to `CCC1(c2cc(C(F)(F)F)ccc2CN(C(=O)c2c(C(F)F)nn(C)c2Cl)C2CC2)CC1` [I.101], for which, under setting [1], the logP is 4.86.
The molecule `COCC1(c2ccc(C)cc2CN(C(=O)c2c(C(F)F)nn(C)c2F)C2CC2)CC1` [I.182] registered a lipophilicity (logP) under setting [3] of 3.52.
Under setting [2], `COc1cc(C=O)c(C2(C)CC2)cc1OC` [IV.08, 4,5-dimethoxy-2-(1-methylcyclopropyl)benzaldehyde] gave a chromatographic logP of 2.56.
Under setting [1], `Cn1nc(C(F)F)c(C(=O)N(Cc2ccccc2C2(C(F)F)CC2)C2CC2)c1F` [I.142] had a logP of 3.33.
Under setting [1], `Cn1nc(C(F)F)c(C(=O)N(Cc2ccccc2C2(C(F)F)CC2)C2CC2)c1Cl` [I.143] registered a logP of 3.46.
The same measure, in the same setting: the same measure for `CCC1(c2cc(C(F)(F)F)ccc2CN(C(=O)c2c(C(F)F)nn(C)c2F)C2CC2)CC1` [I.100]: 4.75; for `Cn1nc(C(F)F)c(C(=O)N(Cc2ccc(F)cc2C2(C(F)F)CC2)C2CC2)c1F` [I.144]: 3.41.
`Cn1nc(C(F)F)c(C(=O)N(Cc2c(Br)cccc2C2(C(F)F)CC2)C2CC2)c1Cl` [I.156]: under setting [1], the logP amounted to 3.87.
Same read-out and setting: then `Cn1nc(C(F)F)c(C(=O)N(Cc2cccc(-c3ccccc3)c2C2(C)CC2)C2CC2)c1F` [I.012], with 4.73.
Consider `COC(=O)C1(c2ccc(Cl)cc2C=O)CC1` [IV.25, methyl 1-(4-chloro-2-formylphenyl)cyclopropanecarboxylate], for which the chromatographic logP under setting [2] was found to be 2.68.
In turn, `Cn1nc(C(F)F)c(C(=O)N(Cc2cc(F)ccc2C2(C(F)(F)F)CC2)C2CC2)c1Cl` [I.166] returned a logP under setting [3] of 3.96.
In the case of `Cn1nc(C(F)F)c(C(=O)N(Cc2cc(C(F)(F)F)ccc2C2(C)CC2)C2CC2)c1F` [I.059], under setting [1], the lipophilicity (logP) came out at 4.34.
Under setting [1], `COc1ccc(CN(C(=S)c2c(C(F)F)nn(C)c2F)C2CC2)c(C2(C)CC2)c1` [I.030] returned a logP of 4.34.
Still for that read-out and setting: then `Cn1nc(C(F)F)c(C(=S)N(Cc2ccc(F)cc2C2(C)CC2)C2CC2)c1F` [I.023], with 4.56; and `Cn1nc(C(F)F)c(C(=O)N(Cc2cccc(C3CCCCC3)c2C2(C)CC2)C2CC2)c1F` [I.007], with 5.74.
For `Cn1nc(C(F)F)c(C(=O)N(Cc2cc(F)ccc2C2(C(F)(F)F)CC2)C2CC2)c1F` [I.165], the logP under setting [3] came to 3.83.
On the same count and under the same terms, the same measure for `Cn1nc(C(F)F)c(C(=O)N(Cc2c(C3(C)CC3(Cl)Cl)ccc(Cl)c2Cl)C2CC2)c1Cl` (racemic) [I.174]: 4.81.
Under setting [1], `Cn1nc(C(F)F)c(C(=S)N(Cc2ccccc2C2(C)CC2)C2CC2)c1Cl` [I.004] showed a logP of 4.63.
`CC1(c2c(Cl)cccc2CBr)CC1` [V.01, 1-(bromomethyl)-3-chloro-2-(1-methylcyclopropyl)benzene] displayed a chromatographic logP (Table 5 (formula V)) of 4.86.
Turning to `Cc1ccc(C2(CC(C)C)CC2)c(CN(C(=O)c2c(C(F)F)nn(C)c2Cl)C2CC2)c1` [I.160], the logP under setting [3] is recorded as 5.54.
In the case of `Cc1ccc(C=O)c(C2(C)CC2)c1` [IV.04, 4-methyl-2-(1-methylcyclopropyl)benzaldehyde], the chromatographic logP under setting [2] is 3.44.
As to `Cn1nc(C(F)F)c(C(=O)N(Cc2ccc(-c3ccsc3)cc2C2(C)CC2)C2CC2)c1F` [I.040], under setting [1], the logP came out at 4.61.
On to `CCC1(c2ccccc2CN(C(=S)c2c(C(F)F)nn(C)c2F)C2CC2)CC1` [I.098], for which the lipophilicity (logP) under setting [1] was found to be 4.85.
Take `C#CC1(c2ccc(Cl)cc2CN(C(=O)c2c(C(F)F)nn(C)c2F)C2CC2)CC1` [I.090]: the logP under setting [1] is on record as 3.73.
As to `Cn1nc(C(F)F)c(C(=O)N(Cc2cc(Cl)ccc2C2(C)CC2(Cl)Cl)C2CC2)c1F` (racemic) [I.168], the logP under setting [3] was 4.39.
In turn, `Cc1ccc(C2(C(C)C)CC2)c(CN(C(=O)c2c(C(F)F)nn(C)c2F)C2CC2)c1` [I.137] registered a log partition coefficient (logP) under setting [1] of 4.95.

As usually defined, the chromatographic logP is lipophilicity estimated from chromatographic retention. Read a high chromatographic logP as higher lipophilicity. For orientation: logP means a log measure of how a compound divides between an organic and an aqueous phase.

These data come from patent US10070645B2, “N-cycloalkyl-N-{[2-(1-substitutedcycloalkyl)phenyl]methylene}-(thio)carboxamide derivatives” (BAYER CROPSCIENCE AKTIENGESELLSCHAFT, priority 2013, dated 2018).
